Reference: the supplement of paper PMC10878532, “Sperm Toolbox—A selection of small molecules to study human spermatozoa” (PLOS ONE, 2024)
Counter-ions that a name gives are not always drawn.

Legend:
human spermatozoa [1] = test: total motile sperm, percent change vs DMSO (non-capacitating); higher = more of the measured sperm population than DMSO, for viability, fewer PI-positive (dead) cells than DMSO
HepG2 = HepG2 toxicity (resazurin), effect normalised to DMSO (DMSO = 0); higher = more features changed / larger toxic effect; conditions: incubation time: 70h incubation
human spermatozoa [2] = test: hyperactivated motile sperm, percent change vs DMSO (capacitating); higher = more of the measured sperm population than DMSO, for viability, fewer PI-positive (dead) cells than DMSO; conditions: incubation time: 30min incubation
human spermatozoa [3] = test: progressively motile sperm, percent change vs DMSO (capacitating); higher = more of the measured sperm population than DMSO, for viability, fewer PI-positive (dead) cells than DMSO; conditions: incubation time: 30min incubation
HeLa [4] = test: Cell Painting percent induction (share of features beyond 2 z-scores vs DMSO); higher = more features changed / larger toxic effect; extreme values may be limits of the assay; conditions: incubation time: 24h incubation
human spermatozoa [5] = test: change in acrosome-reacted (PNA+) sperm vs DMSO, no agonist (capacitating); higher = more of the measured sperm population than DMSO, for viability, fewer PI-positive (dead) cells than DMSO; conditions: incubation time: 3h
human spermatozoa [6] = test: acrosome-reacted (PNA+) sperm after agonist cocktail, percent change vs DMSO (capacitating); higher = more of the measured sperm population than DMSO, for viability, fewer PI-positive (dead) cells than DMSO; conditions: incubation time: 3h, capacitating + agonist cocktail 1h
human spermatozoa [7] = test: viability fold change, 1 - (PI-positive fraction / DMSO median); higher = more of the measured sperm population than DMSO, for viability, fewer PI-positive (dead) cells than DMSO; conditions: incubation time: 3h, non-capacitating
human spermatozoa [8] = test: progressively motile sperm, percent change vs DMSO (non-capacitating); higher = more of the measured sperm population than DMSO, for viability, fewer PI-positive (dead) cells than DMSO; extreme values may be limits of the assay
HeLa [9] = test: HeLa toxicity: nuclei-count effect normalised to DMSO (DMSO = 0); higher = more features changed / larger toxic effect; conditions: incubation time: 24h incubation
[10] = incubation time: 10min incubation, 9.99 µM
[11] = incubation time: 10min incubation, 29.9 µM
[12] = incubation time: 3h incubation, 9.99 µM
[13] = incubation time: 3h incubation, 29.9 µM
[14] = incubation time: 6h incubation, 9.99 µM
[15] = incubation time: 6h incubation, 29.9 µM
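For progressively motile sperm, percent change vs DMSO (non-capacitating) in this document: pooled live human sperm from at least 3 donors, tracked by automated microscopy in 0.5 s time-lapse movies, compounds at 10 and 30 µM, versus median of 16 DMSO wells per plate.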
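For total motile sperm, percent change vs DMSO (non-capacitating) in this document: sperm pooled from at least 3 donors, tracked in 0.5 s time-lapse movies by automated microscopy after 10 min, 3 h or 6 h with compound at 10 or 30 µM.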

Row | SMILES | total motile sperm (human spermatozoa [1]; [10]) [%] | total motile sperm (human spermatozoa [1]; [11]) [%] | total motile sperm (human spermatozoa [1]; [12]) [%] | total motile sperm (human spermatozoa [1]; [13]) [%] | total motile sperm (human spermatozoa [1]; [14]) [%] | total motile sperm (human spermatozoa [1]; [15]) [%] | HepG2 toxicity (HepG2; 10 µM) [%] | HepG2 toxicity (HepG2; 30 µM) [%] | hyperactivated motile sperm (human spermatozoa [2]; 9.99 µM) [%] | hyperactivated motile sperm (human spermatozoa [2]; 29.9 µM) [%] | progressively motile sperm (human spermatozoa [3]; 9.99 µM) [%] | progressively motile sperm (human spermatozoa [3]; 29.9 µM) [%] | Cell Painting percent induction (HeLa [4]; 9.99 µM) [%] | Cell Painting percent induction (HeLa [4]; 29.9 µM) [%] | change in acrosome-reacted (human spermatozoa [5]; 9.99 µM) [%] | change in acrosome-reacted (human spermatozoa [5]; 29.9 µM) [%] | acrosome-reacted (human spermatozoa [6]; 9.99 µM) [%] | acrosome-reacted (human spermatozoa [6]; 29.9 µM) [%] | viability fold change (human spermatozoa [7]; 9.99 µM) | viability fold change (human spermatozoa [7]; 29.9 µM) | progressively motile sperm (human spermatozoa [8]; [10]) [%] | progressively motile sperm (human spermatozoa [8]; [11]) [%] | progressively motile sperm (human spermatozoa [8]; [12]) [%] | progressively motile sperm (human spermatozoa [8]; [13]) [%] | progressively motile sperm (human spermatozoa [8]; [14]) [%] | progressively motile sperm (human spermatozoa [8]; [15]) [%] | HeLa toxicity: nuclei-count effect normalised (HeLa [9]; 9.99 µM) [%] | HeLa toxicity: nuclei-count effect normalised (HeLa [9]; 29.9 µM) [%]
1 | CCOc1ccc(-c2nc(-c3cccc4c3CCC4NCCO)no2)cc1OCC (configuration not stated) [CYM 5442 hydrchloride] | 0.362 | -6.08 | 7.62 | -11.7 | 7.81 | -12.3 | 14.4 | 101 | 46.2 | 45.7 | 3.76 | 6.19 | 4.97 | 3.13 | 2.58 | 4.61 | 63 | 75.1 | -0.289 | -0.544 | 15.6 | 3.34 | 40 | 14.5 | 51.9 | 21.7 | -0.601 | 18
2 | Nc1nc(Cl)nc2c1ncn2[C@@H]1O[C@H](CO)[C@@H](O)[C@@H]1F [Clofarabine] | -6.85 | -9.16 | -17.7 | -20.8 | -25.1 | -28.8 | 12.2 | 19.6 | 206 | 262 | 10.5 | 12.9 | 0.396 | 0.54 | 1.07 | 0.866 | 87.1 | 104 | -0.45 | -0.516 | 21.7 | 19.3 | 50.7 | 35.6 | 46.2 | 29.9 | 47.6 | 47.5
3 | Clc1ccc(C(OCCN2CCCCC2)c2ccccc2)cc1 (configuration not stated) [Cloperastine hydrochloride] | 1.61 | 2.24 | -3.5 | -29.1 | -19.1 | -44 | 7.17 | 8.06 | -26.2 | -69.6 | 5.13 | -14.3 | 1.84 | 3.64 | 1.21 | 0.462 | -1.44 | -4.86 | -1.96 | -1.7 | 7.41 | -9.23 | -87 | -98.1 | -86.3 | -97.8 | 6.68 | 19.6
4 | CNS(=O)(=O)c1ccccc1Nc1nc(Nc2ccc(C3CCN(C)CC3)cc2OC)ncc1Cl [Compound 19] | -56.4 | -58.2 | -66.7 | -69.7 | -63.1 | -74.1 | 103 | 103 | -80.3 | -81.6 | -48.6 | -61.5 | 51.7 | 53.2 | 1.02 | 5.53 | -19.8 | 31.9 | -0.353 | -1.11 | -91.3 | -92.3 | -90.1 | -93.7 | -90.5 | -96 | 98.9 | 97.1
5 | CCOC(=O)CSc1nc(=O)c(NCC(=O)OC)n[nH]1 [Compound B4] | -1.27 | -2.9 | -1.69 | -8.87 | -5.02 | -14.2 | -2.06 | 5.66 | 141 | 283 | 3.54 | -5 | 0 | 0 | 0.981 | 1.58 | 78.6 | 102 | -0.743 | -0.817 | 0.38 | -0.636 | 7.69 | -26.4 | 4.42 | -27.1 | -3.67 | -5.81
6 | OCCN(CCO)c1nc(N2CCCCC2)c2nc(N(CCO)CCO)nc(N3CCCCC3)c2n1 [Dipyridamole] | 0.517 | -2.33 | -2.26 | -16 | -6.57 | -14.4 | -2.63 | 7.46 | 88.9 | 43.9 | 16.4 | 19.4 | 0.036 | 0.18 | 1.09 | 1.87 | 56.3 | 74.8 | -2.05 | -2.06 | 36 | 38.1 | 80.3 | 58.3 | 82.1 | 83.5 | 3.21 | 2
7 | CCN(CC)C(=S)SSC(=S)N(CC)CC [Disulfiram] | -80.8 | -91.5 | -94.3 | -91.5 | -88.6 | -93.2 | -2.95 | 20.2 | -82.7 | -88.4 | -96.3 | -99.9 | 0 | 0.576 | 16.4 | 16 | 86.5 | 13 | -0.587 | -1.58 | -96.4 | -100 | -100 | -99.9 | -99.3 | -100 | 16.7 | 49.8
8 | COc1ccc2nc([S@@+]([O-])Cc3ncc(C)c(OC)c3C)[nH]c2c1 [Esomeprazole] | -4.34 | -3.89 | -8.86 | -9.65 | -8.85 | -15.2 | -1.96 | 4.42 | 72.4 | 123 | 15.2 | 19 | 0 | 0 | 0.624 | 1.41 | 25.4 | 50.1 | 0.0722 | -0.272 | 11.4 | 21.1 | 37 | 43.5 | 50.4 | 35.7 | -3.81 | -3.61
9 | CC(C)C(C(=O)OC(C#N)c1cccc(Oc2ccccc2)c1)c1ccc(Cl)cc1 (configuration not stated) [Fenvalerate] | -12.2 | -13.5 | -9.13 | -13 | -6.57 | -13.4 | 6.05 | -6.97 | -11.7 | -10.3 | -16 | -21.3 | 0 | 0.036 | 1.05 | 0.945 | 16 | 11.8 | -0.675 | 0.413 | -11.9 | -13.7 | 3.76 | -3.88 | 11.3 | 5.45 | 8.15 | 4.61
